Consider two compounds from patent US10336702B2, “Pharmaceutically active compounds” (BERGENBIO ASA, priority 2015, dated 2019).

Molecules are shown by their SMILES.

One test has as its system Akt3 in MDA-MB-231 cells. Kind of test: Cellular (nuclear) localization of Akt3 by immune fluorescence microscopy. Type of test: cell-based. As to conditions: 2 μM, 36 hours. As to the method: FIGS. 4 and 5 refer to the cellular localization of Akt3 in MDA-MB-231 cells that were treated for 36 hours with EX33 or EX34. In FIG. 4, cells were stained to visualize the nucleus (top left panel) and Akt3 (top right panel) and analyzed using immune fluorescence microscopy. […] The results were obtained using TissueQuest Software.
The cellular program of epithelial to mesenchymal transition (EMT) is utilized by tumour cells to develop drug resistance and to metastasize. Nuclear translocation of Akt3 is considered crucial for Akt3's ability to phosphorylate SNAIL and induce EMT.
MDA-MB-231 cells were treated for 36 hours with Vehicle (DMSO) or 2 μM EX34. Cells were stained to visualize the nucleus and Akt3. […] Mean intensity of Akt3 in the nucleus was evaluated after treatment with DMSO (control) or EX33 using TissueQuest Software (see FIG. 5).

For test [1], the system named is pAkt1, pAkt2 and pAkt3 in MCF10DCIS xenograft tumours. Kind of test: Akt phosphorylation in MCF10DCIS xenograft tumours (SureFire). In kind it is in vivo, mice. As to conditions: 25 mg/kg oral gavage once a day for 2, 4 or 6 days; pAkt1, pAkt2, pAkt3 measured. As to the method:
Mice carrying MCF10DCIS xenograft tumours were treated with Vehicle or EX33 at 25 mg/kg once a day for 2, 4 or 6 days. Tumours were harvested and analyzed by SureFire assay for levels of pAkt1, pAkt2 and pAkt3. Average±SEM are shown, n=4.
Nude mice were injected subcutaneously with MCF10DCIS cells. When the average tumour size reached 440 mm^3, EX33 was administered at 25 mg/kg for 2, 4 or 6 days. EX33 was given by oral gavage once a day. Tumours were harvested and analyzed by SureFire assay for levels of pAkt1, pAkt2 and pAkt3. Average±SEM are shown, n=4.

In a further test the test system is MDA-MB-468 cells. Nature of the test: TNBC MDA-MB-468 subcutaneous xenograft model. In kind it is in vivo, NSG mice. The following applies: 50 mg/kg b.i.d. oral gavage, 5-days on 2-days off, 19 days. As to the method:
Tumour volumes of mice treated with vehicle or EX33 (50 mg/kg b.i.d.) were measured by caliper twice a week, over the course of 19 days. Data is given as Mean±SEM, n=6-10. Statistical analysis was performed by an unpaired two-tailed Student t test.
The MDA-MB-468 model has previously been reported in the literature to be dependent upon Akt3 for xenograft tumour growth (Chin et al., Cancer Res 2014).
NSG mice were injected subcutaneously with MDA-MB-468 cells, and the effect on tumour growth of EX33 was evaluated. EX33 was administered at 50 mg/kg, and was given by oral gavage twice a day in a 5-days on and 2-days off cycle. Tumour growth was monitored by caliper measurements twice a week.
Data are given as Mean±SEM, n=6-10. Statistical analysis was performed by unpaired two-tailed Student t test.

In test [2] the test system is MDA-MB-231-D3H2LN/GPF-Luc cells. Nature of the test: Invasive 3D tumour cell growth in matrigel. Type of test: cell-based. As to conditions: 2 μM, 72 hours, fluorescence microscopy. The protocol: The TNBC aggressive cell line MDA-MB-231-D3H2LN/GPF-Luc was seeded in matrigel on cover slides to obtain invasive 3D tumour cell colonies. Cell cultures were treated for 72 hours with DMSO (control), 2 μM EX34 or 2 μM EX33, and colonies were evaluated by fluorescence microscopy for 3D invasive growth.

A further test has as its system NSCLC cell line H2086. Kind of test: EMT induction (Vimentin immune blotting) with TGF-β under hypoxia. Type of test: cell-based. As to conditions: H2086 cells, 20 ng/ml TGF-β, 1% O2, 5 days, 1 μM compound. The protocol:
EMT induction was evaluated by quantification of the EMT marker Vimentin. NSCLC H2086 cells were treated with 20 ng/ml TGF-β under hypoxic conditions (1% O2) for 5 days. The effect on Vimentin was evaluated by immune blotting for cells treated with Vehicle (DMSO), 1 μM EX33 or 1 μM EX34, and the results are shown in FIG. 7. Glyceraldehyde-3-phosphate dehydrogenase (GAPDH) was used as loading control. The band intensity of Vimentin has been related to the intensity of the GAPDH band.
NSCLC H2086 cells were treated with 20 ng/ml TGF-β under hypoxic conditions (1% O2) for 5 days to induce EMT. The ability of EX33 and EX34 to prevent EMT was evaluated by quantification of the EMT marker Vimentin. The effect on Vimentin was evaluated by immune blotting for cells treated with Vehicle (DMSO), 1 μM EX33 or 1 μM EX34. GAPDH was used as loading control. The band intensity of Vimentin has been related to the intensity of the GAPDH band.

For test [3], the system named is hepatic stellate cell line LX2. Kind of test: α-sma protein and mRNA levels in activated hepatic stellate cells. Type of test: cell-based, human. The protocol:
LX2 cells were treated for 72 hours with the indicated dosages of EX33 (μM). Cell lysates were analyzed by immune blotting for alpha-smooth muscle actin (α-SMA), PCNA and total p-Akt. Actin was used as a loading control.
LX2 cells were treated for 24 hours with the indicated dosages of EX33 (μM). mRNA was isolated and analyzed by RT-PCR for α-SMA expression. Expression level in Vehicle treated cells (0 EX33) was set to 1, and α-sma expression levels following treatment with indicated dosages of EX33 calculated relative to that.
Liver fibrosis is characterized by accumulation of extracellular matrix components such as alpha-smooth muscle actin (α-sma) mainly derived from activated hepatic stellate cells (HSCs).
The role of AKT3 in liver fibrosis was analyzed by studying the efficacy of EX33 to block HSC activation. The human activated hepatic stellate cell line LX2 was treated with different dosages of EX33 and the effects on α-sma protein and mRNA levels were analysed by immune blotting (see FIG. 9) and RT-PCR (see FIG. 10) respectively.

Test [4] concerns MBBR3A human melanoma cancer cell line. Nature of the test: MBBR3A human melanoma sub-cutaneous xenograft model. In kind it is in vivo, Nude mice. As to conditions: 50 mg/kg b.i.d. oral gavage, 5-days on 2-days off, 15 days. The protocol:
Tumour volumes of mice treated with vehicle or EX33 (50 mg/kg b.i.d.) were measured by caliper twice a week, over the course of 15 days. Data is given as Mean±SEM, n=10-12. Statistical analysis was performed by an unpaired two-tailed Student t test.
Nude mice were injected subcutaneously with MBBR3A cells, and the effect on tumour growth of EX33 was evaluated. EX33 was administered at 50 mg/kg EX33 given by oral gavage twice a day in a 5-days on and 2-days off cycle. Tumour growth was monitored by caliper measurements twice a week.
Data are given as Mean±SEM, n=10-12. Statistical analysis was performed by unpaired two-tailed Student t test.

In the next test the test system is HMLER-Akt3 cells. Kind of test: HMLER-Akt3 tumour seeding xenograft model. Type of test: in vivo, NSG mice. The following applies: for tumour initiation: 100 mg/kg once a day from day of implantation; for Tumour incidence (tumours formed/total number of implantations): 100 mg/kg once a day, after 2 weeks, tumours exceeding 20 mm^3. The protocol: HMLER cells are not very tumourigenic. However, after enforced expression of Akt3, these cells are able to initiate tumours.
Mice implanted with 10^5 or 10^6 HMLER-Akt3 cells were treated with vehicle, EX34 or EX33 at 100 mg/kg once a day. Treatment was initiated on the day of tumour cell implantation. A total of 10 tumours were implanted for each treatment condition. Tumour incidence was evaluated after 2 weeks and tumour size cut of was set at 20 mm^3. Significance determined by unpaired Student two-tailed t test.
The numbers are given as tumours formed/total number of implantations. Significance was determined by unpaired two-tailed Student t-test. Ns: not significant.

The subject of test [5] is TNBC cell line MDA-MB-231. Nature of the test: 3D tumour cell growth in matrigel. Type of test: cell-based. The following applies: MDA-MB-231 in matrigel, increasing concentrations, 9 days, DMSO control. The protocol:
MDA-MD-231 cells were treated with increasing concentrations of EX34 or EX33 for 9 days. Treatment was initiated one day after tumour cell seeding. DMSO was used as control. The graphs in FIG. 2 show average tumour size±SEM following treatment with each of EX34 and EX33. Images of the 3D cultures were batch analysed with AMIDA software.
In order to evaluate the role of Akt3 in tumour cell growth and invasion, the effect of two compounds of the invention, the compound of Example 34 (denoted hereafter as EX34) and the compound of Example 33 (denoted hereafter as EX33), on 3D growth in matrigel was assessed.
The TNBC cell line MDA-MB-231 was seeded in matrigel and the cell cultures were treated with increasing concentrations of EX34 or EX33 for 9 days. Treatment was initiated one day after tumour cell seeding. DMSO was used as control. The average tumour sphere size was then evaluated for each treatment. Representative pictures are shown in FIG. 1 for each of the indicated treatment conditions.
Images of the 3D cultures were batch analysed with AMIDA software to quantify the 3D tumour sphere size.

For a further test, the system named is NSCLC cell line H2073. Nature of the test: Cell viability with paclitaxel (resazurin reduction) in paclitaxel-resistant cells. Type of test: cell-based. As to conditions: paclitaxel with or without compound, 72 hours. As to the method:
Cell viability was evaluated using resazurin reduction. Average±SEM are shown, n=3.
The NSCLC cell line H2073 was established from a patient that was resistant to treatment with paclitaxel.
H2073 cells were treated with increasing dosages of paclitaxel in the absence or presence of EX34 for 72 hours, and cell viability was evaluated using resazurin reduction. Average±SEM are shown, n=3.

The mark [6] stands for this setting: 10^5 HMLER-Akt3 cells implanted.
Setting [7] is: 10^6 HMLER-Akt3 cells implanted.

Regarding `CC(=O)N(C)[C@H]1CC[C@H](CC(=O)Nc2cc(-c3ccccc3)c(-c3ccc(C4(N)CCC4)cc3)cn2)CC1` [EX33], the “nuclear localization of Akt3” value with Akt3 in MDA-MB-231 cells is “Akt3 stains cytoplasmic”. Besides, the “level of Akt3 phosphorylation in xenograft tumours” value in test [1] is recorded as “selectively reduced the level of Akt3 phosphorylation”. The “primary tumour growth (tumour volume)” value (with MDA-MB-468 cells; in test [4]) was “reduced tumour growth compared to vehicle treated mice” each time. Also, in test [2], the “invasive 3D tumour cell growth” value was “inhibited tumour cell growth”. In addition, in the test on NSCLC cell line H2086, the “EMT induction (EMT marker Vimentin)” value is “prevent EMT induction”. Further, the “α-sma mRNA level” value in test [3] (24 hours, RT-PCR) was “decreases the levels of α-sma mRNA and protein”. Besides, the α-sma protein level entry in [3] (72 hours, immune blotting) was “decreases the levels of α-sma mRNA and protein”. Also, the tumour initiation result in the test with HMLER-Akt3 cells was “prevented tumour initiation”. In addition, the “Tumour incidence (tumours formed/total number of implantations)” value in the test with HMLER-Akt3 cells (setting [6]) and in the test on HMLER-Akt3 cells (setting [7]) was 0/10^<0.0001 in each case. Further, the “3D tumour cell growth (average tumour sphere size)” value in [5] was “dose-dependent inhibition of 3D tumour cell growth”.

As to `COC(=O)N(C)[C@H]1CC[C@H](CC(=O)Nc2cnc(-c3ccc(C(C)(C)N)cc3)c(-c3ccccc3)c2)CC1` [EX34], the “nuclear localization of Akt3” value in the test with Akt3 in MDA-MB-231 cells is “prevents nuclear localization of Akt3”. Besides, the “invasive 3D tumour cell growth” value in test [2] is given as “inhibited tumour cell growth”. The “EMT induction (EMT marker Vimentin)” value in the test with NSCLC cell line H2086 was “prevent EMT induction”. In addition, the tumour initiation entry in the test on HMLER-Akt3 cells is reported as “prevented tumour initiation”. Further, the “Tumour incidence (tumours formed/total number of implantations)” value in the test with HMLER-Akt3 cells (setting [6]) is listed as 3/10^ns; with HMLER-Akt3 cells (setting [7]) it was 0/10^0.0002. Further, in the test on NSCLC cell line H2073, the “sensitivity to paclitaxel (cell viability)” value is “sensitizes the paclitaxel resistant cell line H2073 to paclitaxel”. The “3D tumour cell growth (average tumour sphere size)” value in test [5] was “dose-dependent inhibition of 3D tumour cell growth”.
